Values joined by “and” are separate entries in the source; they are usually repeats but may differ in a detail not shown here. Equal entries are not always repeated. Inconclusive results and toxic doses are left out. Cut-off read from the data, not from the text of the source: active = T/C of 150% or more; inactive = T/C below 125%. Square brackets hold non-standard residues; d marks the D form. Peptide text beside a SMILES is read from it. * marks the point of attachment. ξ: configuration not given here. Cbz = O=C(OCc1ccccc1)*; ξI = CCC(C)C(N)C(=O)O
Test system: L1210 leukemia ip in BDF1 mice, survival T/C
Test: NCI In Vivo Anticancer Drug Screen. Data for tumor model L1210 Leukemia (intraperitoneal) in B6D2F1 (BDF1) mice
Conditions: endpoint: mean survival time, higher = longer survival
Outline: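 Transplanted-tumor mice were given test agent; controls received vehicle only. Survival readings from the two groups were divided (treated over control).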

[1] = dose: 100.0 mg/kg/injection, schedule: Q04DX003 (ip), vehicle: saline with Tween-80
[2] = dose: 200.0 mg/kg/injection, schedule: Q04DX003 (ip), vehicle: saline with Tween-80
[3] = dose: 400.0 mg/kg/injection, schedule: Q04DX003 (ip), vehicle: saline with Tween-80
[4] = dose: 100.0 mg/kg/injection, schedule: Q01DX009 (ip), vehicle: saline with Tween-80
[5] = dose: 200.0 mg/kg/injection, schedule: Q01DX009 (ip), vehicle: saline with Tween-80
[6] = dose: 400.0 mg/kg/injection, schedule: Q01DX009 (ip), vehicle: saline with Tween-80
[7] = dose: 100.0 mg/kg/injection, schedule: Q01DX009 (ip), vehicle: Klucel (hydroxypropylcellulose) (HPC)
[8] = dose: 200.0 mg/kg/injection, schedule: Q01DX009 (ip), vehicle: Klucel (hydroxypropylcellulose) (HPC)
[9] = dose: 400.0 mg/kg/injection, schedule: Q01DX009 (ip), vehicle: Klucel (hydroxypropylcellulose) (HPC)
[10] = dose: 100.0 mg/kg/injection, schedule: Q04DX003 (ip), vehicle: saline
[11] = dose: 200.0 mg/kg/injection, schedule: Q04DX003 (ip), vehicle: saline
[12] = dose: 100.0 mg/kg/injection, schedule: Q01DX009 (ip), vehicle: saline
[13] = dose: 200.0 mg/kg/injection, schedule: Q01DX009 (ip), vehicle: saline
[14] = dose: 100.0 mg/kg/injection, schedule: Q04DX002 (ip), vehicle: saline with Tween-80
[15] = dose: 200.0 mg/kg/injection, schedule: Q04DX002 (ip), vehicle: saline with Tween-80
[16] = dose: 400.0 mg/kg/injection, schedule: Q04DX002 (ip), vehicle: saline with Tween-80
[17] = dose: 400.0 mg/kg/injection, schedule: Q01DX009 (ip), vehicle: saline
[18] = dose: 100.0 mg/kg/injection, schedule: Q04DX002 (ip), vehicle: Klucel (hydroxypropylcellulose) (HPC)
[19] = dose: 200.0 mg/kg/injection, schedule: Q04DX002 (ip), vehicle: Klucel (hydroxypropylcellulose) (HPC)
[20] = dose: 400.0 mg/kg/injection, schedule: Q04DX002 (ip), vehicle: Klucel (hydroxypropylcellulose) (HPC)

Measured: T/C

COc1cc(CCN2CCN(c3cc(C)ccc3Cl)CC2)cc(OC)c1OC
inactive: dose: 100.0 mg/kg/injection, schedule: Q01DX001 (ip), vehicle: other 93 % of control | dose: 200.0 mg/kg/injection, schedule: Q01DX001 (ip), vehicle: other 97 % of control | dose: 400.0 mg/kg/injection, schedule: Q01DX001 (ip), vehicle: other 97 % of control

CCC(C)C(NC(=O)CNC(=O)OCc1ccccc1)C(=O)OC (stereo not drawn) (Cbz-Gly-[ξI]-OMe)
inactive: [1] 101 % of control | [2] 98 % of control | [3] 96 % of control

CCCC(=O)OC(C(=O)OCC)c1ccccc1 (stereo not drawn)
inactive: [4] 98 % of control | [5] 106 % of control | [6] 96 % of control

CCn1c(N)c(N)c(=O)[nH]c1=S
inactive: [1] 86 % of control | [2] 93 % of control | [3] 86 % of control

Cn1c(=O)c2[nH]c(C3CC4C=CC3C4)nc2n(C)c1=O (stereo not drawn)
inactive: dose: 50.0 mg/kg/injection, schedule: Q01DX001 (ip), vehicle: saline 93 % of control | dose: 100.0 mg/kg/injection, schedule: Q01DX001 (ip), vehicle: saline 104 % of control | dose: 200.0 mg/kg/injection, schedule: Q01DX001 (ip), vehicle: saline 98 % of control

Cc1cc(C)c(C(=O)O)c(O)c1
inactive: dose: 200.0 mg/kg/injection, schedule: Q01DX001 (ip), vehicle: carboxymethylcellulose (CMC) 93 % of control

COC(=O)CCC(C)C1CCC2C3C(OC(C)=O)CC4CC(O)CCC4(C)C3CC(O)C12C (stereo not drawn)
inactive: dose: 100.0 mg/kg/injection, schedule: Q01DX009 (ip), vehicle: carboxymethylcellulose (CMC) 93 % of control and 107 % of control | dose: 100.0 mg/kg/injection, schedule: Q04DX002 (ip), vehicle: carboxymethylcellulose (CMC) 93 % of control and 97 % of control | dose: 100.0 mg/kg/injection, schedule: Q04DX003 (ip), vehicle: carboxymethylcellulose (CMC) 104 % of control | dose: 200.0 mg/kg/injection, schedule: Q01DX009 (ip), vehicle: carboxymethylcellulose (CMC) 91 % of control and 92 % of control | dose: 200.0 mg/kg/injection, schedule: Q04DX002 (ip), vehicle: carboxymethylcellulose (CMC) 97 % of control and 98 % of control | dose: 200.0 mg/kg/injection, schedule: Q04DX003 (ip), vehicle: carboxymethylcellulose (CMC) 97 % of control | dose: 400.0 mg/kg/injection, schedule: Q01DX009 (ip), vehicle: carboxymethylcellulose (CMC) 94 % of control and 88 % of control | dose: 400.0 mg/kg/injection, schedule: Q04DX002 (ip), vehicle: carboxymethylcellulose (CMC) 97 % of control | dose: 400.0 mg/kg/injection, schedule: Q04DX003 (ip), vehicle: carboxymethylcellulose (CMC) 95 % of control

O=[N+]([O-])c1cc(S(=O)(=O)OCC2CO2)ccc1Cl (stereo not drawn)
inactive: dose: 6.25 mg/kg/injection, schedule: Q04DX003 (ip), vehicle: Klucel (hydroxypropylcellulose) (HPC) 98 % of control | dose: 12.5 mg/kg/injection, schedule: Q01DX009 (ip), vehicle: Klucel (hydroxypropylcellulose) (HPC) 96 % of control | dose: 12.5 mg/kg/injection, schedule: Q04DX003 (ip), vehicle: Klucel (hydroxypropylcellulose) (HPC) 98 % of control | dose: 25.0 mg/kg/injection, schedule: Q01DX009 (ip), vehicle: Klucel (hydroxypropylcellulose) (HPC) 90 % of control | dose: 25.0 mg/kg/injection, schedule: Q04DX003 (ip), vehicle: Klucel (hydroxypropylcellulose) (HPC) 101 % of control | dose: 50.0 mg/kg/injection, schedule: Q04DX003 (ip), vehicle: Klucel (hydroxypropylcellulose) (HPC) 103 % of control

Cc1cc(-n2c(C)ccc2C)no1
inactive: [1] 100 % of control | [2] 90 % of control | [3] 101 % of control

C(=N\Nc1nc2ccccc2s1)/c1cccnc1
inactive: [7] 98 % of control | [8] 98 % of control | [9] 101 % of control

Oc1ccc(Sc2ccc(O)cc2)cc1
inactive: [10] 101 % of control | [11] 92 % of control

CCOC(=O)NC(=S)NN
inactive: [12] 105 % of control | [13] 110 % of control

CCCCCCCCCCCCCCCC(=O)Nc1c(C)cccc1Cl
inactive: [14] 96 % of control | [15] 88 % of control | [16] 93 % of control

O=C(COc1ccc(Cl)c(Cl)c1)NCc1ccncc1
inactive: dose: 100.0 mg/kg/injection, schedule: Q01DX001 (ip), vehicle: Klucel (hydroxypropylcellulose) (HPC) 93 % of control | dose: 200.0 mg/kg/injection, schedule: Q01DX001 (ip), vehicle: Klucel (hydroxypropylcellulose) (HPC) 102 % of control | dose: 400.0 mg/kg/injection, schedule: Q01DX001 (ip), vehicle: Klucel (hydroxypropylcellulose) (HPC) 102 % of control

CC(C)(C)NP(=O)(NC(C)(C)C)c1ccc([N+](=O)[O-])cc1
inactive: dose: 100.0 mg/kg/injection, schedule: Q04DX003 (ip), vehicle: acetone 100 % of control | dose: 400.0 mg/kg/injection, schedule: Q04DX003 (ip), vehicle: acetone 93 % of control

COc1ccc(CC(=O)Cc2ccc(OC)c(OC)c2)cc1OC
inactive: [4] 93 % of control | [1] 100 % of control | [5] 98 % of control | [2] 108 % of control | [6] 102 % of control | [3] 100 % of control

O=C1CCCC/C1=C\c1cccc2ccccc12
inactive: [14] 103 % of control | [15] 96 % of control | [16] 88 % of control

C=CCC(CC)(C(=O)OCC)C(=O)OCC
inactive: [12] 107 % of control | [10] 102 % of control | [13] 98 % of control | [11] 113 % of control | [17] 95 % of control | dose: 400.0 mg/kg/injection, schedule: Q04DX003 (ip), vehicle: saline 96 % of control

Cc1cc2ccc(OC(=O)c3ccc(N=C(N)N)cc3)cc2oc1=O
inactive: [1] 97 % of control | [2] 95 % of control | [3] 98 % of control

COC(=O)c1cc(Cl)ccc1OCC(=O)Nc1cccc([N+](=O)[O-])c1
inactive: [7] 96 % of control | [18] 94 % of control | dose: 100.0 mg/kg/injection, schedule: Q04DX002 (ip), vehicle: saline 94 % of control | [8] 89 % of control | [19] 92 % of control | dose: 200.0 mg/kg/injection, schedule: Q04DX002 (ip), vehicle: saline 97 % of control | [9] 104 % of control | [20] 92 % of control | dose: 400.0 mg/kg/injection, schedule: Q04DX002 (ip), vehicle: saline 97 % of control

CCOC(=O)c1ccc(Nc2nnc(-c3ccc(OC)cc3OC)s2)cc1
inactive: [14] 104 % of control | [15] 104 % of control | [16] 101 % of control

O=C(Cn1ccccc1=O)c1ccccc1
inactive: [1] 101 % of control | [3] 100 % of control

COc1ccc(/C=N\NC(=O)OC(C)(C)C)c(OC)c1OC
inactive: dose: 100.0 mg/kg/injection, schedule: Q01DX009 (ip), vehicle: acetone 104 % of control | [1] 105 % of control | dose: 200.0 mg/kg/injection, schedule: Q01DX009 (ip), vehicle: acetone 94 % of control | [2] 112 % of control | dose: 400.0 mg/kg/injection, schedule: Q01DX009 (ip), vehicle: acetone 96 % of control | [3] 112 % of control

CSc1nc(N)nc2c1ncn2C1CC(O)C(CO)O1 (stereo not drawn)
inactive: dose: 100.0 mg/kg/injection, schedule: Q01DX005 (ip), vehicle: saline 105 % of control and 112 % of control and 96 % of control | [12] 121 % of control | dose: 200.0 mg/kg/injection, schedule: Q01DX005 (ip), vehicle: saline 112 % of control and 121 % of control and 91 % of control | [13] 115 % of control | [17] 116 % of control

Nc1ccc2c(c1)S(=O)(=O)c1cc(N)c(S(=O)(=O)O)cc1-2
inactive: [18] 115 % of control | [19] 94 % of control | [20] 97 % of control

O=C(N/N=C/c1ccccc1Cl)c1ccccc1NC(=O)C1CC1
inactive: [7] 97 % of control | [8] 98 % of control | [9] 101 % of control

O=C1NC2(CCC(O)CC2)C(O)(c2ccccc2)C12CCCCC2 (stereo not drawn)
inactive: dose: 75.0 mg/kg/injection, schedule: Q01DX001 (ip), vehicle: saline 105 % of control | dose: 150.0 mg/kg/injection, schedule: Q01DX001 (ip), vehicle: saline 86 % of control | dose: 300.0 mg/kg/injection, schedule: Q01DX001 (ip), vehicle: saline 86 % of control

CC1CN=C(c2ccc(Br)cc2)O1 (stereo not drawn)
inactive: [4] 105 % of control | [5] 89 % of control

— PubChem BioAssay AID248 (DTP/NCI, 2004)
